Experimental data taken from patent US11446394B2, “Lipid nanoparticle formulations comprising lipidated cationic peptide compounds for nucleic acid delivery” (NUTCRACKER THERAPEUTICS, INC., priority 2018, dated 2022).

Assays:
[1] = Dynamic light scattering of Fluc mRNA/peptoid formulations (particle size, PDI); format: physicochemical; conditions: Fluc mRNA/peptoid formulation, 5:1 mass ratio peptoid:cargo; for Size PDI: size polydispersity index by DLS; for Size (nm): volume average particle size/diameter by DLS
Procedure: (§1) To prepare nanoparticle formulations, the tertiary amino lipidated and/or PEGylated cationic peptide compound is mixed by pipetting with nucleic acid at a mass ratio between approximately 1:1 (peptide compound:cargo) and 20:1. Prior to formulation, tertiary amino lipidated and/or PEGylated cationic peptide compounds and cargo (such as nucleic acid) are diluted in ethanol and acidic buffer (PBS adjusted to pH 5.5 with 0.1 M HCl) respectively to a volume ratio of 1:3 and to target a final cargo concentration of approximately 0.05 mg/mL to 0.2 mg/mL. The exemplary amino lipidated cationic peptoids 1-36 described in Example 2 were combined with firefly luciferase (Fluc) mRNA to form nanoparticle compositions to be evaluated for therapeutic and/or prophylactic purposes in vitro or in vivo. The formulations were prepared according to the protocol of Example 3 and mixed by simple pipetting. The mRNA/peptoid formulation at a 5:1 mass ratio of peptoid:cargo were evaluated by dynamic light scattering (DLS) in order to determine the volume average particle size/diameter (nm) of the mRNA/peptoid complex and the size polydispersity index (PDI) within the formulation. The percentage of mRNA encapsulation for each formulation of the exemplary compounds were determined by fluorescence of the Qubit RNA HS (Invitrogen) dye before and after lysis of particles by Triton X-100.

[2] = mRNA encapsulation by Qubit RNA HS dye fluorescence before and after Triton X-100 lysis; format: physicochemical; conditions: percentage of mRNA encapsulation; Fluc mRNA/peptoid formulation, 5:1 mass ratio peptoid:cargo
Procedure: as §1

[3] = system: HeLa cells; test: In vitro firefly luciferase (Fluc) expression after treatment with Fluc mRNA/amino lipidated peptoid formulations; format: cell-based; conditions: peptoid:Fluc mRNA 5:1 w/w, 100 ng/well; for Luciferase Expression (RLU) 6 h: 6 hours of treatment; for Luciferase Expression (RLU) 24 h: 24 hours of treatment
Procedure: The efficacy of mRNA/amino lipidated peptoid formulations was evaluated in vitro based on their ability to deliver the firefly luciferase (Fluc) reporter gene to cultured cells. The amino lipidated cationic peptoids 1-36 of Example 2 were individually combined with Fluc mRNA at a 5:1 w/w ratio, and the resulting particles were added to cultured HeLa cells at a dose of 100 ng/well (in 100 μL total volume). The resulting luciferase expression (RLU) was measured by a luminescence plate reader after 6 hours and 24 hours of treatment.

| SMILES | Size PDI [1] | Size (nm) [1] [nm] | % Encapsulation [2] [%] | Luciferase Expression (RLU) 6 h [3] [RLU] | Luciferase Expression (RLU) 24 h [3] [RLU] |
| --- | --- | --- | --- | --- | --- |
| CCCCCCCCCCN(CC(N)=O)C(=O)CN(CCCCCCCCCC)C(=O)CN(CCCCCCCCCC)C(=O)CN(CCCCCCCCCC)C(=O)CN(CCc1ccccc1)C(=O)CN(CCc1ccccc1)C(=O)CN(CCN)C(=O)CN(CCc1ccccc1)C(=O)CN(CCc1ccccc1)C(=O)CN(CCN)C(=O)CN(CCc1ccccc1)C(=O)CN(CCc1ccccc1)C(=O)CNCCN [Compound 8] | 0.077 | 234 | 82.5 | 1.10E+04 | 1.33E+04 |
| CCCCCCCCCCN(CC(N)=O)C(=O)CN(CCCCCCCCCC)C(=O)CN(CCc1ccccc1)C(=O)CN(CCc1ccccc1)C(=O)CN(CCN)C(=O)CN(CCc1ccccc1)C(=O)CN(CCc1ccccc1)C(=O)CN(CCN)C(=O)CN(CCc1ccccc1)C(=O)CN(CCc1ccccc1)C(=O)CN(CCN)C(=O)CN(CCc1ccccc1)C(=O)CN(CCc1ccccc1)C(=O)CN(CCN)C(=O)CN(CCc1ccccc1)C(=O)CN(CCc1ccccc1)C(=O)CNCCN [Compound 12] | 0.211 | 224.4 | 86.5 | 4.04E+02 | 5.71E+02 |
| CCCCCCCCCCN(CC(N)=O)C(=O)CN(CCCCCCCCCC)C(=O)CN(CCCCCCCCCC)C(=O)CN(CCCCCCCCCC)C(=O)CN(CCCCCCCCCC)C(=O)CN(CCc1ccccc1)C(=O)CN(CCc1ccccc1)C(=O)CN(CCN)C(=O)CN(CCc1ccccc1)C(=O)CN(CCc1ccccc1)C(=O)CN(CCN)C(=O)CN(CCc1ccccc1)C(=O)CN(CCc1ccccc1)C(=O)CNCCN [Compound 19] | 0.158 | 276 | 70.9 | 8.20E+03 | 1.09E+04 |
| CCCCCCCCCCN(CC(N)=O)C(=O)CN(CCCCCCCCCC)C(=O)CN(CCCCCCCCCC)C(=O)CN(CCCCCCCCCC)C(=O)CN(CCCCCCCCCC)C(=O)CN(CCc1ccccc1)C(=O)CN(CCc1ccccc1)C(=O)CN(CCN)C(=O)CN(CCc1ccccc1)C(=O)CN(CCc1ccccc1)C(=O)CN(CCN)C(=O)CN(CCc1ccccc1)C(=O)CN(CCc1ccccc1)C(=O)CN(CCN)C(=O)CN(CCc1ccccc1)C(=O)CN(CCc1ccccc1)C(=O)CNCCN [Compound 21] | 0.174 | 386.5 | 65.4 | 3.45E+03 | 1.24E+04 |
| CCCCCCCCCCN(CC(=O)N(CC(=O)N(CCCCCCCCCC)CC(=O)N(CC(N)=O)CC(CC)CCCC)CC(CC)CCCC)C(=O)CN(CCc1ccccc1)C(=O)CN(CCc1ccccc1)C(=O)CN(CCN)C(=O)CN(CCc1ccccc1)C(=O)CN(CCc1ccccc1)C(=O)CN(CCN)C(=O)CN(CCc1ccccc1)C(=O)CN(CCc1ccccc1)C(=O)CNCCN (stereo not shown) [Compound 24] | 0.135 | 161 | 87.0 | 1.79E+04 | 3.43E+04 |
| CCCCCCCCCCN(CC(N)=O)C(=O)CN(CCCCCCCCCC)C(=O)CN(CCCCCCCCCC)C(=O)CN(CCCCCCCCCC)C(=O)CN(CCc1ccccc1)C(=O)CN(CCc1ccccc1)C(=O)CN(CCCN)C(=O)CN(CCc1ccccc1)C(=O)CN(CCc1ccccc1)C(=O)CN(CCCN)C(=O)CN(CCc1ccccc1)C(=O)CN(CCc1ccccc1)C(=O)CN(CCCN)C(=O)CN(CCc1ccccc1)C(=O)CN(CCc1ccccc1)C(=O)CNCCCN [Compound 29] | 0.237 | 343.4 | 24.8 | 1.64E+03 | 6.72E+03 |
| CCCCCCCCCCN(CC(N)=O)C(=O)CN(CCCCCCCCCC)C(=O)CN(CCCCCCCCCC)C(=O)CN(CCCCCCCCCC)C(=O)CN(CCc1ccccc1)C(=O)CN(CCc1ccccc1)C(=O)CN(CC1CCCN1)C(=O)CN(CCc1ccccc1)C(=O)CN(CCc1ccccc1)C(=O)CN(CC1CCCN1)C(=O)CN(CCc1ccccc1)C(=O)CN(CCc1ccccc1)C(=O)CNCC1CCCN1 (stereo not shown) [Compound 34] | 0.295 | 348.4 | 58.0 | 1.95E+03 | 2.71E+03 |
| CCCCCCCCCCN(CC(N)=O)C(=O)CN(CCCCCCCCCC)C(=O)CN(CCCCCCCCCC)C(=O)CN(CCCCCCCCCC)C(=O)CN(CCc1ccccc1)C(=O)CN(CCc1ccccc1)C(=O)CN(CC1CCCN1)C(=O)CN(CCc1ccccc1)C(=O)CN(CCc1ccccc1)C(=O)CN(CC1CCCN1)C(=O)CN(CCc1ccccc1)C(=O)CN(CCc1ccccc1)C(=O)CN(CC1CCCN1)C(=O)CN(CCc1ccccc1)C(=O)CN(CCc1ccccc1)C(=O)CNCC1CCCN1 (stereo not shown) [Compound 35] | 0.486 | 359.8 | 38.0 | 1.22E+03 | 1.60E+03 |
